Laboratory results taken from paper PMC10057480, “Expanding the Library of 1,2,4-Oxadiazole Derivatives: Discovery of New Farnesoid X Receptor (FXR) Antagonists/Pregnane X Receptor (PXR) Agonists” (Molecules, 2023).

Tests used:
[1] = LogD measurement (1-octanol/PBS pH 7.4, LC-MS/MS); format: physicochemical
Method: 40 μL of a 10 mM solution in DMSO of each compound was added to a 2 mL test tube containing 980 μL of PBS pH 7.4 and 980 μL of 1-Octanol (in duplicate). The tubes were shaken for 2 h at room temperature and subsequently kept still to allow for an optimal phase separation. The two phases were then separated, and 10 μL of each sample was diluted in 490 μL of MeOH for LC-MS/MS analysis. LogD was calculated as Log10 of the ratio of mass signal octanol/PBS. LC-MS/MS analysis was conducted using a Kinetex 2.6 µm C18 100 Å LC column 100 × 2.1 mm by means of a linear gradient of the aqueous phase (H2O 0.1% FA) and organic phase (ACN 0.1% FA).

[2] = test system: Human-CaCo2 cells stimulated with TNFα; experiment: qPCR of PXR and inflammatory cytokines in TNFα-stimulated CaCo2 cells; format: cell-based; details: TNFα 100 ng/mL plus compound 10 μM
Method: HepG2 and CaCo2 cell lines, obtained from ATCC, were routinely cultured in Eagle’s MEM and high-glucose DMEM, respectively, supplemented with 10% FBS, 1% glutamine, and penicillin/streptomycin. For in vitro experiments, HepG2 (2 × 106) cells were stimulated with 6-ECDCA at a concentration of 10 µM alone or in combination with compound 5 or 11, and CaCo2 cells were exposed to TNFα (100 ng/mL) alone or in combination with rifaximin, compound 5, or 11.
Total RNA was isolated from the HepG2 and CaCo2 cell lines using TRI reagent (Zymo Research) and Direct-zol™ RNA MicroPrep w/Zymo-Spin™ IIC Columns (Zymo Research, Irvine, CA, USA). After purification from genomic DNA using DNase I (Thermo Fisher Scientific, Waltham, MA, USA), 2 μg of RNA from each sample was reverse transcribed using Kit FastGene Scriptase Basic (Nippon Genetics, Mariaweilerstraße, Düren, Germany) in 20-μL of reaction volume, and 50 ng of cDNA was amplified in a 20-μL solution containing 200 nM of each primer and 10 μL of PowerUp™ SYBR™ Green Master Mix (Thermo Fisher Scientific, Waltham, MA, USA) using a Quantstudio 3 system (Applied Biosystems, Foster City, CA, USA). The relative mRNA expression was calculated according to the ΔCt method. The primer used were as follows (forward and reverse): hGapdh (for […]; rev […]), hBsep (for […]; rev […]), hOstα (for […]; rev […]), hNtcp (for […]; rev […]), hPxr (for GCAAGGGCTTTTTCAGGAG; rev GGGTCTTCCGGGTGATCT), hIl-8 (for […]; rev […]), hIl-1β (for […]; rev […]).

Structure (SMILES)	logD at 2 h [1]	Effect on proinflammatory factors caused by TNFα stimulation [2]
CCCCCN1CCC(c2nc(-c3ccc4ccccc4c3)no2)CC1 [Compound 5, 3-(Naphthalen-2-yl)-5-(1-pentylpiperidin-4-yl)-1,2,4-oxadiazole]	4.4	reduced changes in the production of proinflammatory factors
OCc1ccc(CN2CCC(c3nc(-c4ccc5ccccc5c4)no3)CC2)cc1 [Compound 11, 5-[1-(4-(Hydroxymethyl)benzyl)piperidin-4-yl]-3-(naphthalen-2-yl)-1,2,4-oxadiazole]	3.9	reduced changes in the production of proinflammatory factors
